{"source": "patent US7304174B2", "about": "“CaSR antagonist” (Japan Tobacco Inc., priority 2003, dated 2007)", "key": {"PTH secretion [1]": {"test_system": "PTH secretion", "assay": "PTH secretion action, Experimental Example 3 (serum PTH after oral administration)", "format": "in vivo, male SD rats", "conditions": "test compound administration group, 1 mg/5 ml/kg oral, rats fasted 20 hrs", "experimental": "The test compound was orally administered to 5 to 9-week-old male SD rats (Charles River Japan, Inc.) fasted for 20 hrs, using a solvent (0.5% methyl cellulose solution) at a dose of 1 mg/5 ml/kg. A solvent alone was orally administered to the control group at a dose of 5 ml/kg. The blood was drawn from the tail vein immediately before and 15 min, 30 min after administration of the test compound, and serum was obtained. The serum PTH concentration was measured using rat PTH ELISA kit (Amersham Biosciences)."}, "human calcium receptor": {"biological_target": "T1, human calcium receptor (Homo sapiens, UniProt P41180)", "T1 construct": "expressed in transfected cells; host or cells: cell strain derived from rat adrenal, co-transformed with luciferase cDNA", "T1 sequence (P41180 20-1078)": "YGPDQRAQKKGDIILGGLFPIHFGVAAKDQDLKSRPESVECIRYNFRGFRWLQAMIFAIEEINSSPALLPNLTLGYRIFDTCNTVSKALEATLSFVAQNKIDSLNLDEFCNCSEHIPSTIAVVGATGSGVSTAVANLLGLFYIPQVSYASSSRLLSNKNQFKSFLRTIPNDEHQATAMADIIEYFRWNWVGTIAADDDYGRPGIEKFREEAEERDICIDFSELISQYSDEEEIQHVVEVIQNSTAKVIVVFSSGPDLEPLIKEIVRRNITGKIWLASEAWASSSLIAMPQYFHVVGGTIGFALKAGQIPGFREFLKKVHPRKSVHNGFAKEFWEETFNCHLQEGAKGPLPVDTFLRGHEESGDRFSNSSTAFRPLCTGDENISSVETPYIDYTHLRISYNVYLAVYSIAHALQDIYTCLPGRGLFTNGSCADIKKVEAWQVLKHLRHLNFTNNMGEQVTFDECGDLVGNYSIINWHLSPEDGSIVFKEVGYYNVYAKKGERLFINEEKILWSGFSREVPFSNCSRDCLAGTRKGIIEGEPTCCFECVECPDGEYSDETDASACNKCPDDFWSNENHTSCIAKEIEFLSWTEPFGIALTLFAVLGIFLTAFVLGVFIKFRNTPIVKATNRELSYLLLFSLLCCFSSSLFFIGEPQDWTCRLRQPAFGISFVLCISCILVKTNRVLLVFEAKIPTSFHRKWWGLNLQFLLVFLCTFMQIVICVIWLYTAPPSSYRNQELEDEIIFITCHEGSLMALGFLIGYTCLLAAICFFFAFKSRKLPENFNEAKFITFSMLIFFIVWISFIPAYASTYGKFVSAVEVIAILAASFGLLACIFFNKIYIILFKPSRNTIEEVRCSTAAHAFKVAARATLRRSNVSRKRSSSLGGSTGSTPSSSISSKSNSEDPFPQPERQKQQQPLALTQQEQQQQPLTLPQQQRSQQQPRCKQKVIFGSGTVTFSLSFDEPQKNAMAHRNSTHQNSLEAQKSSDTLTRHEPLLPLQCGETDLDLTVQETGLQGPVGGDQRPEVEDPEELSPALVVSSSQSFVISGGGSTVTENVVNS", "assay": "Evaluation of antagonistic action on calcium receptor using reporter gene (luciferase)", "format": "cell-based", "conditions": "transformed rat adrenal derived cells, 5 mM calcium chloride, culture 4 hrs, luciferase activity; read-out: Reporter gene assay (IC50, concentration showing 50% inhibitory rate)", "summary_of_the_method": "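Rat adrenal-derived cells transfected with luciferase and human calcium receptor cDNA, in F12 with 0.5% dialyzed horse serum and 0.25% dialyzed fetal bovine serum. Luciferase luminescence gave % inhibition vs control and blank; IC50 at 50% inhibition.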"}, "PTH release": {"test_system": "PTH release", "conditions": "cited from earlier work"}, "PTH secretion [2]": {"test_system": "PTH secretion", "assay": "Reproductive test of NPS-2143 of the reference (PTH secretion)", "format": "in vivo"}, "[3]": {"conditions": "OVX rat, 100 μmol/kg; cited from earlier work"}, "[4]": {"test_system": "osteoblast and osteoclast", "conditions": "in vitro; cited from earlier work"}, "PTH secretion [5]": {"test_system": "PTH secretion", "assay": "PTH secretion action, Experimental Example 2 (serum PTH after oral administration)", "format": "in vivo, male SD rats", "conditions": "comparative example, 30 mg/5 ml/kg oral"}}}
{"smiles": "Cc1ccc(CC(C)(C)NC[C@@H](O)CO[C@H](C)c2ccccc2Oc2ccc(C(=O)O)cc2)cc1F", "note": "[Example 2-1, 4-[2-[(1R)-[(2R)-3-[[1-(3-fluoro-4-methylphenyl)-2-methylpropan-2-yl]amino]-2-hydroxypropoxy]ethyl]phenoxy]benzoic acid]", "values": [{"measurement": "Serum PTH concentration 15 min later", "setting": "PTH secretion [1]; 15 min", "value": "25.1 ± 2.3", "unit": "pg/mL"}, {"measurement": "Serum PTH concentration 30 min later", "setting": "PTH secretion [1]; 30 min", "value": "19.1 ± 0.9", "unit": "pg/mL"}, {"measurement": "IC50", "setting": "human calcium receptor", "value": 15, "unit": "nM"}]}
{"smiles": "CC(C)(Cc1ccc2ccccc2c1)NC[C@@H](O)COc1cccc(Cl)c1C#N", "note": "[NPS-2143]", "values": [{"measurement": "Blood PTH concentration 4 hours later", "setting": "PTH release; OVX rat, 100 μmol/kg", "value": "about 140 pg/ml"}, {"measurement": "Blood PTH concentration in 30 minutes", "setting": "PTH release; OVX rat, rat PTH (1-34) 5 μg/kg, NPS-2143 100 μmol/kg", "value": "about 115 pg/ml"}, {"measurement": "Effect on bone (bone density)", "setting": "PTH release; OVX rats, oral", "value": "free of bone decrease or bone increase"}, {"measurement": "Release of PTH", "setting": "PTH release; OVX rats, oral", "value": "significantly promotes release of PTH"}, {"measurement": "PTH secretion promoting action", "setting": "PTH secretion [2]", "value": "sustained secretion promoting action"}, {"measurement": "Blood concentration of NPS-2143 8 hours after the administration", "setting": "[3]", "value": "not less than 100 ng/ml"}, {"measurement": "Blood concentration of NPS-2143 24 hours later", "setting": "[3]", "value": "≤ 10", "unit": "ng/mL"}, {"measurement": "Direct effect on osteoblast and osteoclast", "setting": "[4]", "value": "did not show any direct effect"}]}
{"smiles": "COc1ccc(-c2cccc(C(=O)O)c2)cc1C(OC[C@H](O)CNC(C)(C)Cc1ccc2ccccc2c1)C1CC1", "note": "(stereo partly drawn)", "values": [{"measurement": "PTH secretion activity", "setting": "PTH secretion [5]", "value": "no PTH secretion activity was exhibited"}]}
